Laboratory results: ChEMBL document CHEMBL1158784, “Sorbicillin analogues and related dimeric compounds from Penicillium notatum” (2005)
Activity calls are given as the source filed them. The calls are words filed in the database; no cut-off is given here.

Experiments:
[1] = tested on: Streptomyces viridochromogenes; test: Antimicrobial activity against Streptomyces viridochromogenes Tu57 at 20 ug/9 mm disk by agar diffusion method; format: functional, organism-based
[2] = tested on: Candida albicans; test: Antimicrobial activity against Candida albicans at 20 ug/9 mm disk by agar diffusion method; format: functional
[3] = tested on: Desmodesmus subspicatus; test: Antimicrobial activity against Scenedesmus subspicatus at 20 ug/9 mm disk by agar diffusion method; format: functional, organism-based
[4] = tested on: Chlorella sorokiniana; test: Antimicrobial activity against Chlorella sorokiniana at 20 ug/9 mm disk by agar diffusion method; format: functional, organism-based
[5] = tested on: Rhizomucor miehei; test: Antimicrobial activity against Mucor miehei at 20 ug/9 mm disk by agar diffusion method; format: functional, organism-based
[6] = tested on: Escherichia coli; test: Antimicrobial activity against Escherichia coli at 20 ug/9 mm disk by agar diffusion method; format: functional, organism-based
[7] = tested on: Bacillus subtilis; test: Antimicrobial activity against Bacillus subtilis at 20 ug/9 mm disk by agar diffusion method; format: functional
[8] = tested on: Staphylococcus aureus; test: Antimicrobial activity against Staphylococcus aureus at 20 ug/9 mm disk by agar diffusion method; format: functional
[9] = tested on: Chlorella vulgaris; test: Antimicrobial activity against Chlorella vulgaris at 20 ug/9 mm disk by agar diffusion method; format: functional, organism-based

Row | Compound | Activity [1] | inhibition zone (IZ) [2] [mm] | Activity [3] | Activity [4] | Activity [5] | Activity [6] | inhibition zone (IZ) [7] [mm] | inhibition zone (IZ) [8] [mm] | Activity [9] | Activity [2] | Activity [7] | Activity [8]
1 | C/C=C/C=C/C(O)=C1/C(=O)[C@](C)(O)C(=O)C(C)=C1O | inactive | 13 | inactive | inactive | inactive | inactive | 12 | 12 | inactive |  |  | 
2 | C/C=C/CCC(=O)c1cc(C)c(O)c(C)c1O | inactive | 13 | inactive | inactive | inactive | inactive | 12 | 12 | inactive |  |  | 
3 | CC(C)=CCC/C(C)=C/CC/C(C)=C/C[C@@]12O[C@@H]1[C@H](O)C(C)=CC2=O | inactive | 13 | inactive | inactive | inactive | inactive | 12 | 12 | inactive |  |  | 
4 | C/C=C/C=C/C(=O)C1=C(C)C(=O)C(O)=C(C)C1=O | inactive |  | inactive | inactive | inactive | inactive |  |  | inactive | inactive | inactive | inactive
5 | C/C=C/C=C/C(=O)C1=C[C@@]2(C)[C@H]3C(C(=O)/C=C/C=C/C)=C(O)C(C)=C(O)[C@@]3(C)O[C@@]2(O)[C@@](C)(O)C1=O | inactive |  | inactive | inactive | inactive | inactive |  |  | inactive | inactive | inactive | inactive
6 | C/C=C/C=C/C(O)=C1\C(=O)C(C)=C(O)[C@@](C)(O)C1=O | inactive |  | inactive | inactive | inactive | inactive |  |  | inactive | inactive | inactive | inactive
7 | C/C=C/CCC(=O)c1c(C)c(O)c(O)c(C)c1O | inactive |  | inactive | inactive | inactive | inactive |  |  | inactive | inactive | inactive | inactive
8 | C/C=C/C=C/C(=O)[C@]12C(=O)C(C)=C(O)[C@@](C)(O)[C@H]1[C@H]1\C(=C(O)/C=C/C=C/C)C(=O)[C@]2(C)C(=O)[C@@]1(C)O [BISORBICILLINOL] | inactive | 13 | inactive | inactive | inactive | inactive | 12 | 12 | inactive |  |  | 
9 | C/C=C/C=C/C(O)=C1/C(=O)[C@]2(C)C(=O)[C@@](C)(O)[C@H]1[C@H]1[C@]2(C(=O)CC/C=C/C)C(=O)C(C)=C(O)[C@@]1(C)O [BISVERTINOQUINOL] | inactive | 13 | inactive | inactive | inactive | inactive | 12 | 12 | inactive |  |  | 
10 | C/C=C/C=C/C(O)=C1\C(=O)[C@]2(C)C(=O)[C@@](C)(O)[C@H]1[C@H]1OC(=O)C[C@]12CO [REZISHANONE A] | inactive | 13 | inactive | inactive | inactive | inactive | 12 | 12 | inactive |  |  | 
11 | C/C=C/C=C/C(O)=C1\C(=O)[C@]2(C)C(=O)[C@@](C)(O)[C@H]1C[C@@H]2OCCCC [REZISHANONE B] | inactive | 13 | inactive | inactive | inactive | inactive | 12 | 12 | inactive |  |  | 
12 | C/C=C/C=C/C(O)=C1\C(=O)[C@]2(C)C(=O)[C@@](C)(O)[C@H]1C[C@@H]2OCC [REZISHANONE C] | inactive | 13 | inactive | inactive | inactive | inactive | 12 | 12 | inactive |  |  | 
13 | C/C=C/CC/C(O)=C1\C(=O)[C@]2(C)C(=O)[C@@](C)(O)[C@H]1C[C@@H]2OCC [REZISHANONE D] | inactive | 13 | inactive | inactive | inactive | inactive | 12 | 12 | inactive |  |  | 
14 | C/C=C/CCC(=O)c1cc(C)c(O)cc1O [SOHIRNONE A] | inactive | 13 | inactive | inactive | inactive | inactive | 12 | 12 | inactive |  |  | 
15 | C/C=C/C=C/C(=O)c1c(C)c(O)c(O)c(C)c1O [SOHIRNONE B] | inactive | 13 | inactive | inactive | inactive | inactive | 12 | 12 | inactive |  |  | 
